Reference: publication PMC8808171, “Nonselective TRPC channel inhibition and suppression of aminoglycoside-induced premature termination codon readthrough by the small molecule AC1903” (The Journal of Biological Chemistry, 2022)
“Also recorded” adds a separate entry of the source.

Molecular target: T1, hPiezo1 (Homo sapiens, UniProt Q92508)
T1 construct: expressed in transfected cells; host or cells: HEK T-REx (tetracycline-induced)
Experiment: [Ca2+]i recordings (Fura-2), Piezo1 in HEK T-REx cells
Format: cell-based
Experimental: Based on the findings described above, we wondered whether AC1903—which is typically used as a TRPC5 inhibitor at concentrations of 30–100 μM in cellular assays ([29], [56])—might have limited selectivity for TRPC5 channels and whether its effect on intracellular G418 levels and PTC readthrough might be the consequence of inhibition of other or multiple targets. All well-characterized TRPC channel inhibitors reported to date modulate multiple TRP(C) channels ([34], [35], [36]). […] Because limited data for the selectivity of AC1903 are available in the public domain, we decided to profile AC1903 against a selection of calcium-permeable cation channels by intracellular calcium ([Ca^2+]i) recordings using well-characterized cell lines and TRP channel activators ([46], [57], [58]), and the Ca^2+ indicator Fura-2. In these assays, cells (HEK 293, HEK T-REx, or CHO) overexpressing the relevant ion channel protein and loaded with Fura-2 AM (a cell-permeable precursor of Fura-2) were preincubated with various concentrations of AC1903 or vehicle (DMSO) for 30 min. Then, changes in ratiometric fluorescence (from background) were recorded upon addition of the respective ion channel activator.
HEK T-REx cells expressing tetracycline-inducible TRPC4, TRPC5, TRPC5–C1,TRPC4–C1, and hPiezo1 have been described previously ([46], [57], [59], [78]). […]

T1 sequence (Q92508 whole entry): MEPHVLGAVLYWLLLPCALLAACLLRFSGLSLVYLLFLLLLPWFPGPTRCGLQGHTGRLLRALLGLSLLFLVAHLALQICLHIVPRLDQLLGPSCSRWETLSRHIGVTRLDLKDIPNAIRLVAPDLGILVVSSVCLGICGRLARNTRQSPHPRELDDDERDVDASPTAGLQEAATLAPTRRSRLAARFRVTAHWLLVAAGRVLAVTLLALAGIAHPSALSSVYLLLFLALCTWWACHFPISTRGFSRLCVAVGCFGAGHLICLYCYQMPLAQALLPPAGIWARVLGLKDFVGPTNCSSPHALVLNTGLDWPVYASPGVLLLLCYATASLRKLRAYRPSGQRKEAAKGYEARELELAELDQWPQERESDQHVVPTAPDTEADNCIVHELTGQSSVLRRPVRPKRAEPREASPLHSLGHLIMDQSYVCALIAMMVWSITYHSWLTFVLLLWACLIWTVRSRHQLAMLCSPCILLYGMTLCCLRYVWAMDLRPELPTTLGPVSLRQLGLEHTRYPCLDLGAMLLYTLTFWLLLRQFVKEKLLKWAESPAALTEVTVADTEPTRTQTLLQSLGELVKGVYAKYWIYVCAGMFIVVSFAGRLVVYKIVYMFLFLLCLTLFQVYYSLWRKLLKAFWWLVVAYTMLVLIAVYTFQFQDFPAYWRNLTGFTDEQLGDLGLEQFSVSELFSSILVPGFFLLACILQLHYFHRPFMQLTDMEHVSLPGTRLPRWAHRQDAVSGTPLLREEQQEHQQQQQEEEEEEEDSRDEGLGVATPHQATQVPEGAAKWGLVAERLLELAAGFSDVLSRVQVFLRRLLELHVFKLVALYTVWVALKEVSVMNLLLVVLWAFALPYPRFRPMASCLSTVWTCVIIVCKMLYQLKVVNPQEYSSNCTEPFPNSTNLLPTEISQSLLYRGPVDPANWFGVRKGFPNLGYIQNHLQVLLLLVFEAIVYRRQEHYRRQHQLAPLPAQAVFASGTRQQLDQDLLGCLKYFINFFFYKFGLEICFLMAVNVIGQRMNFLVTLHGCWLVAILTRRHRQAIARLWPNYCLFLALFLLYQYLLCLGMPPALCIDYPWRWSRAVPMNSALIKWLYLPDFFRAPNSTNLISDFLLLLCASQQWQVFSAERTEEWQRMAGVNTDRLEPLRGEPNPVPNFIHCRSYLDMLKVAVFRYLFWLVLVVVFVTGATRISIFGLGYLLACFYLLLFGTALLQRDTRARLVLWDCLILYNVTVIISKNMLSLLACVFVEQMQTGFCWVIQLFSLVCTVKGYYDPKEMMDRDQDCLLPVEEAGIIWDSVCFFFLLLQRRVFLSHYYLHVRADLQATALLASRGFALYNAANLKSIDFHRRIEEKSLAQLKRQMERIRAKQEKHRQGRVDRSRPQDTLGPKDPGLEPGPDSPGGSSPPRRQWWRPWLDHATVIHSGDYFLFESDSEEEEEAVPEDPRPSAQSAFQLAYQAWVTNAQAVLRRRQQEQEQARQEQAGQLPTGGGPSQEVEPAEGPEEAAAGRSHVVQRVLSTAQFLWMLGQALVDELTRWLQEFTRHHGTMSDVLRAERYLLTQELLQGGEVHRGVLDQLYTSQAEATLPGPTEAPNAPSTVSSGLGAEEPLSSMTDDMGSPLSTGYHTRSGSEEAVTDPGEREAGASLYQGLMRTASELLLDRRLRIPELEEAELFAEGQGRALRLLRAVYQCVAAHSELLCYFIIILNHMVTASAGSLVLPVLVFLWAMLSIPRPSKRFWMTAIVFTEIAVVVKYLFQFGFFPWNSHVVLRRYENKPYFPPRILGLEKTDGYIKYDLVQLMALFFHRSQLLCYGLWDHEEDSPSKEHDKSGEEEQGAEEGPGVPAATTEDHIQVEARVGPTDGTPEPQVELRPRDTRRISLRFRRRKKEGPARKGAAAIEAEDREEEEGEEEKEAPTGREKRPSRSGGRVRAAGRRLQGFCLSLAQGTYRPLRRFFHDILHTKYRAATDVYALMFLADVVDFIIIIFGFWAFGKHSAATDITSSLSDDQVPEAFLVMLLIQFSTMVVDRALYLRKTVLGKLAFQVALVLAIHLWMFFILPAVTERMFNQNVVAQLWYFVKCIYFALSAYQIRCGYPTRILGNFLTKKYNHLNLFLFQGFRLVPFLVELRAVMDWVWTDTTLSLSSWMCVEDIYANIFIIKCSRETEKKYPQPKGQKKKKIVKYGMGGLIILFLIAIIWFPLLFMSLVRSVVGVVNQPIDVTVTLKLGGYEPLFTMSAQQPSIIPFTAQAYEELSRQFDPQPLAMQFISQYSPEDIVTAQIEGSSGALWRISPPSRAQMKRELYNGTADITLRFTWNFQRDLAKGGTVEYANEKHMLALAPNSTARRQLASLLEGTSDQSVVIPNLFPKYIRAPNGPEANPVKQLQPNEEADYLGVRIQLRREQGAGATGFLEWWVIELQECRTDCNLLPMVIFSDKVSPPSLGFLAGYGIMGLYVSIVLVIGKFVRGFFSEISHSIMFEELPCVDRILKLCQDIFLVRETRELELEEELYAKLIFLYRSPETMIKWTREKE

**Q.** Which “inhibition of Yoda1-activated Piezo1 channels” value (AC1903 up to 30 μM) does the source give for `c1ccc(Cn2c(NCc3ccco3)nc3ccccc32)cc1` [AC1903] here?
**A.** The value was “does not affect; also recorded: did not inhibit”.

**Q.** And the IC50 (HEK T-REx, activator Yoda1 (3 μM))?
**A.** Its IC50 is over 100 µM.
